Assays:
Assay type in all cases: in vivo, C57BL/6 mice
[1] = test system: F4/80 positive cells (macrophages); experiment: Inflow of macrophages into femur, F4/80 immunohistostaining, 4×ACP animal model; conditions: dunnione 80 mg/kg oral
Experimental: (§1) In this invention, 11 weeks old C57BL/6 mice were used. All the mice used in the experiments of the invention were raised in an aseptic animal room at the temperature of 22˜26 L with the humidity of 55˜60%. The mice were allowed to take general solid feed (SAMTACO Co., Ltd., Korea) and water freely. The mice were adapted for 1 week before the experiment. All the experiments were performed after obtaining approval from the clinical trial management committee in accordance with the laboratory animal care and ethics regulations of Wonkwang University. The mouse animal model of the present invention was treated with different anticancer drugs. Particularly, one kind of anticancer drug was administered intraperitoneally one time or more, or several kinds of anticancer drugs were administered once or more times or at different concentrations, leading to the establishment of the animal model of the invention. In the adriamycin-induced animal model, the mice were divided into 6 groups as follows: the control group administered with PBS (Control, 5 mice), the group administered intraperitoneally with adriamycin (4 mg/kg/day) 3 times (ADR, 5 mice), the group administered orally with dunnione or β-lapachone from 3 days before the adriamycin treatment daily (20 mg/kg, 5 mice), and the group administered with dunnione or β-lapachone (20 mg/kg, 5 mice). […]

[2] = test system: inflammatory cytokines TNF-α, IL-1β, IL-6 and IL-17; experiment: Plasma inflammatory cytokines by ELISA in gemcitabine (500 mg/kg) animal model; conditions: gemcitabine 500 mg/kg i.p. once; dunnione 20 mg/kg oral daily from 3 days before; 2 days after gemcitabine; vs gemcitabine group
Experimental: as §1, with “invention.” for “invention. In the adriamycin-induced animal model, the mice were divided into 6 groups as follows: the control group administered with PBS (Control, 5 mice), the group administered intraperitoneally with adriamycin (4 mg/kg/day) 3 times (ADR, 5 mice), the group administered orally with dunnione or β-lapachone from 3 days before the adriamycin treatment daily (20 mg/kg, 5 mice), and the group administered with dunnione or β-lapachone (20 mg/kg, 5 mice).”
Plasma was isolated from the gemcitabine animal model prepared by the same manner as described in Example 5, and the inflammatory cytokines TNF-α, IL-1β, IL-6 and IL-17 were analyzed by ELISA.

[3] = test system: inflammatory cytokines TNF-α, IL-1β, IL-6 and IL-17; experiment: Plasma inflammatory cytokines by ELISA in adriamycin animal model; conditions: adriamycin 4 mg/kg/day i.p. ×3; compound 20 mg/kg oral daily from 3 days before; 4 days after final adriamycin; vs adriamycin group
Experimental: (§2) In this invention, 11 weeks old C57BL/6 mice were used. All the mice used in the experiments of the invention were raised in an aseptic animal room at the temperature of 22˜26 L with the humidity of 55˜60%. The mice were allowed to take general solid feed (SAMTACO Co., Ltd., Korea) and water freely. The mice were adapted for 1 week before the experiment. All the experiments were performed after obtaining approval from the clinical trial management committee in accordance with the laboratory animal care and ethics regulations of Wonkwang University. The mouse animal model of the present invention was treated with different anticancer drugs. […]
Particularly, plasma was isolated from the adriamycin animal model prepared by the same manner as described in Example 4, and the inflammatory cytokines TNF-α (R&D Systems, MTA00B), IL-1β (R&D Systems, MLB00C), IL-6 (R&D Systems, M6000B) and IL-17 (R&D Systems, M1700) were analyzed by ELISA (enzyme-linked immunosorbent assay).
To investigate the regulatory effect of β-lapachone on adriamycin induced inflammatory cytokines, plasma was isolated from the adriamycin animal model prepared by the same manner as described in Example 4, and the inflammatory cytokines TNF-α, IL-1β, IL-6 and IL-17 were analyzed by ELISA.

[4] = test system: inflammatory cytokines TNF-α, IL-1β, IL-6 and IL-17; experiment: Plasma inflammatory cytokines by ELISA in 3× and 6×ACP animal model; conditions: dunnione 20 mg/kg oral daily from 3 days before, 3 days after ACP
Experimental: as §2, with “drugs. Particularly, one kind of anticancer drug was administered intraperitoneally one time or more, or several kinds of anticancer drugs were administered once or more times or at different concentrations, leading to the establishment of the animal model of the invention.” for “drugs.”
Plasma was isolated from the 3× and 6×ACP animal model prepared by the same manner as described in Example 7, and the inflammatory cytokines TNF-α, IL-1β, IL-6 and IL-17 were analyzed by ELISA.

[5] = test system: inflammatory cytokines TNF-α and IL-1β; experiment: Brain inflammatory response: TNF-α and IL-1β in hypothalamus (RT-PCR, ELISA), 4×ACP animal model; conditions: dunnione 80 mg/kg oral
Experimental: In this invention, 11 weeks old C57BL/6 mice were used. All the mice used in the experiments of the invention were raised in an aseptic animal room at the temperature of 22˜26 L with the humidity of 55˜60%. The mice were allowed to take general solid feed (SAMTACO Co., Ltd., Korea) and water freely. The mice were adapted for 1 week before the experiment. All the experiments were performed after obtaining approval from the clinical trial management committee in accordance with the laboratory animal care and ethics regulations of Wonkwang University. The mouse animal model of the present invention was treated with different anticancer drugs. Particularly, one kind of anticancer drug was administered intraperitoneally one time or more, or several kinds of anticancer drugs were administered once or more times or at different concentrations, leading to the establishment of the animal model of the invention. In the adriamycin-induced animal model, the mice were divided into 6 groups as follows: the control group administered with PBS (Control, 5 mice), the group administered intraperitoneally with adriamycin (4 mg/kg/day) 3 times (ADR, 5 mice), the group administered orally with dunnione or β-lapachone from 3 days before the adriamycin treatment daily (20 mg/kg, 5 mice), and the group administered with dunnione or β-lapachone (20 mg/kg, 5 mice). 4 days after the final adriamycin treatment, analysis of the mice was performed.
The present inventors established an animal model co-treated with three different anticancer drugs in this experiment. The anticancer drugs used herein were adriamycin (ADR), cyclophosphamide (CYP) and paclitaxel (PTX), which were indicated as ACP. […]
A homogenate was prepared with the mouse hypothalamus extracted from the 4×ACP animal model prepared by the same manner as described in Example 8. Then, the expressions of the inflammatory cytokines TNF-α and IL-1β in the brain tissue were analyzed by ELISA.

[6] = test system: MAFbx, MuRF1 and Bnip3 mRNAs; experiment: Muscle loss related gene expression in cyclophosphamide induced animal model; conditions: cyclophosphamide 350 mg/kg total; dunnione 20 mg/kg oral; vs cyclophosphamide group

## CC1OC2=C(C(=O)C(=O)c3ccccc32)C1(C)C (centres unmarked) [dunnione, 2,3-dihydro-2,3,3-trimethyl naphtho [1,2-b]furan-4,5-dione]
[1]
  increased F4/80 positive cells in the bone (femur): significantly reduced
[2]
  level of inflammatory cytokines (TNF-α, IL-1β, IL-6, IL-17) in plasma: significantly reduced
[3]
  level of inflammatory cytokines (TNF-α, IL-1β, IL-6, IL-17) in plasma: significantly reduced
[4]; 3×ACP i.p. once
  level of inflammatory cytokines (TNF-α, IL-1β, IL-6, IL-17) in plasma: significantly inhibited
[4]; 6×ACP i.p. once
  level of inflammatory cytokines (TNF-α, IL-1β, IL-6, IL-17) in plasma: significantly inhibited
[5]; ELISA
  up-regulations of TNF-α and IL-1β at protein level in the hypothalamus: significantly suppressed
[5]; RT-PCR
  up-regulations of TNF-α and IL-1β at RNA level in the hypothalamus: significantly suppressed
[6]
  expressions of MAFbx, MuRF1 and Bnip3 mRNAs in muscle: significantly reduced

— patent US12370170B2, “Composition comprising naphthoquinone-based compound as active ingredient, for preventing or ameliorating fatigue, cachexia, pain, cognitive decline and hematopoietic stem cell reduction which are side effects related to anticancer drug treatment” (NADIANBIO LTD., priority 2016, dated 2025)
